Tests used:
alkaline phosphatase = alkaline phosphatase (Bos taurus, UniProt P19111); format: biochemical; parameters: mature GPI-type homodimer; conditions: 0.1M TRIS pH 10.3, 50 mM NaCl, 10 mM MgCl2, 0.1 mM ZnCl2; double-reciprocal plot
Procedure: As compared with other synthetic substrates, the fluorogenic precipitating substrates described in this invention normally have high enzymatic turnover rates and moderate affinities for the enzymes. Turnover rates of the substrates can be determined as in Example 10 and expressed as micromoles of product per minute per milligram protein (k2, in units of μmol·min^-1 ·mg^-1). The affinity of the substrate is determined by its dissociation constant, KM, in millimolar units. The enzymes can bind to and catalyze conversion of the soluble substrates into detectable reaction products that are apparently less soluble and will precipitate in aqueous solutions. The preferred detectable reaction products are fluorescent precipitates. The precipitation, however, and thus fluorescence, depends on the reaction product concentration or the initial substrate concentration used, as well as the ionization state of the product's phenol group. There are two parameters determining the precipitation, i.e. critical concentration (Mc) and pH dependence (pKa). A method for determination of these parameters is given in Example 11. Table 10 gives the relevant parameters for the enzymatic reaction and precipitation of quinazolinone-based alkaline phosphatase substrates.
4). Kinetic assay of some of the substrates. The specific activity (k2, in a unit of micromole per minute per milligram protein) and Michaelis constant (KM, in a unit of millimole) for hydrolysis of the substrates by the enzyme are listed in Table 10. All of the specific enzymatic reactions are made in the following buffers:
For alkaline phosphatase: 0.1M TRIS pH 10.3 containing 50 mM NaCl, 10 mM MgCl2 and 0.1 mM ZnCl2.
Because the kinetic assay involves variable amounts of precipitate with variable light scattering, measurement in the fluorometer as described above cannot be used here. Instead, a fluorescence plate reader with front-face measurement geometry such as the CytoFluor™ 2300 (Millipore, Bedford, Mass.) is preferred for quantitating the precipitate. The following protocol illustrates the kinetic assay.
4.1 ). In a 96-well plate, pipette 200 μL of a phosphatase substrate in the alkaline phosphatase reaction buffer with a final concentration of 2 to 6 mM, then add 50 μL 1 mg/mL alkaline phosphatase. […] Fluorescence of the precipitate is measured in the CytoFluor with appropriate sensitivity and excitation and emission settings as have been determined with the fluorometer. The fluorescence signal versus the amount of the precipitate is then established for each substrate.
4.2). […] Read the fluorescence of the resulting precipitate after 10 minutes reaction time and calculate the precipitate formation rate per minute by use of the determined fluorescence signal versus the amount of the precipitate. […]

[1] = Critical concentration (Mc) for precipitation of the enzymatic product; format: physicochemical; conditions: product of hydrolysis by excess alkaline phosphatase, 0.1M TRIS pH 10.3
Procedure: 2D) Critical concentration: Various concentrations of 2-(4'-methoxy-2'-phosphoryloxyphenyl)quinazolinone (3e) were reacted with 50 μL of excess alkaline phosphatase in 200 μL solution of 0.1M TRIS≥pH 10.3 containing 50 mM NaCl, 10 mM MgCl2 and 0.1 mM ZnCl2. The resulting precipitate and fluorescence were measured in a CytoFluor fluorescence plate reader (Millipore) with excitation at 360 nm, emission at 460 nm using sensitivity setting 3.
3). Determination of the critical concentration and pH dependence for the precipitation. The critical concentration (Mc, in units of mmoles) and the pH dependence (pKa) for precipitation are both important parameters for judging the precipitation properties of the enzymatic products obtained from the subject substrates. Below the critical concentration the product will not be detected as a fluorescent precipitate. Obviously these two parameters contribute to the precipitation in a correlated way. As a simple approach, one may define the critical concentration as the concentration necessary for the precipitation at a high pH where all of the phenol group is ionized. Similarly, acidification by lowering the pH results in precipitation at a concentration below the critical concentration that is obtained at high pH to an extent that is related to the pKa of the phenolic group. It is a characteristic of the preferred substrates that only the product precipitate is fluorescent. In this case the precipitate is quantitated by its fluorescence which results in a correlation of the fluorescence with the degree of precipitation.
To obtain the critical concentration for one product the phosphatase substrate (1e) (200 μL) in a 96-well plate is added to 0.1M TRIS, pH 10.3, containing 50 mM NaCl, 10 mM MgCl2 and 0.1 mM ZnCl2 to yield a final concentration of 0.1 to 10 mM. 50 μL of a 1 mg/mL solution of alkaline phosphatase is then added. The fluorescence development is complete after 5 minutes as measured in using a CytoFluor™ 2300 fluorescence plate reader (Millipore, Bedford, Mass.). A concentration showing appreciable fluorescence is determined as the critical concentration.

alkaline phosphatase, sequence (P19111 20-506): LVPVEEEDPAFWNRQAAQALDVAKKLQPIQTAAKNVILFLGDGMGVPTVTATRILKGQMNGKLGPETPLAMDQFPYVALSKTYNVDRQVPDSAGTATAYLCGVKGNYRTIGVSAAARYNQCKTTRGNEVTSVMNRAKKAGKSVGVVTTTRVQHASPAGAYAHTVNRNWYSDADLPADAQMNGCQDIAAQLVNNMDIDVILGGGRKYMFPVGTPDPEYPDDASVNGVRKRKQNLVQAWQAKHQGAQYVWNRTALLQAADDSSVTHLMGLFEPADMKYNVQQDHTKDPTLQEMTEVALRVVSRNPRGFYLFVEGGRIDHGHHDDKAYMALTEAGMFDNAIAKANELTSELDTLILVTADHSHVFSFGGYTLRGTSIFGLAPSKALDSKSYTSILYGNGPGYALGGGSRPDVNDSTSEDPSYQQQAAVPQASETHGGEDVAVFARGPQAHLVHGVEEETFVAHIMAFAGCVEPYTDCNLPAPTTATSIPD

For `O=c1[nH]c(-c2cc(Cl)ccc2OP(=O)(O)O)nc2ccc(Cl)cc12` [8e, Ammonium 2-(5'-chloro-2'-phosphoryloxyphenyl)-6-chloro-4-(3H)-quinazolinone], the “k2 (specific activity, turnover rate)” value (alkaline phosphatase) was 618.60 µmol/min/mg and the “Mc (critical concentration for precipitation)” value [1] was 0.1 mM.

— US5443986A, “Enzymatic analysis using substrates that yield fluorescent precipitates” (Molecular Probes, Inc., priority 1993, dated 1995)
